Among the test systems are SW-620 colon; EKVX NSCLC; HL-60(TB) leukemia; U251 CNS; MDA-MB-435; CAKI-1 renal; SF-268 CNS; NCI/ADR-RES ovarian; MOLT-4 leukemia; RPMI-8226 leukemia; HCC-2998 colon; SF-539 CNS; TK-10 renal; COLO 205 colon; K-562 leukemia; HT29 colon; SR leukemia; LOX IMVI melanoma; OVCAR-8 ovarian.
Common to all, as to experiment: inhibition of tumour cell growth, NCI panel, 48 h

SMILES strings stand for the structures.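 In this assay, cells in 96-well plates receive the compound at five concentrations for 48 hours. Endpoints are linearly interpolated between the surrounding concentrations. At the TGI there is no net growth.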 Bounds are passed on as bounds.

For the molecule `COc1ccc2c(c1)CC[C@@H]1[C@@H]2CC[C@]2(C)C(=O)/C(=C/c3ccc(N(C)C)cc3)C[C@@H]12`, the TGI in the assay on SW-620 colon is more than 100 µM; in the assay on EKVX NSCLC it was more than 100 µM; with HL-60(TB) leukemia, more than 100 µM; with U251 CNS, more than 100 µM; in the assay on MDA-MB-435 it was more than 100 µM; with CAKI-1 renal, 71.7 µM. Besides, the TGI in the assay on SF-268 CNS was 89.9 µM; in the assay on NCI/ADR-RES ovarian, more than 100 µM; in the assay on MOLT-4 leukemia it was more than 100 µM; with RPMI-8226 leukemia, more than 100 µM; with HCC-2998 colon it was more than 100 µM; in the assay with SF-539 CNS, more than 100 µM. For the same molecule, the TGI in the assay on TK-10 renal is 96.9 µM; with COLO 205 colon, more than 100 µM.
On to `Nn1c(CCCCCCCCc2nnc(COc3ccc(Cl)cc3Cl)n2N)nnc1COc1ccc(Cl)cc1Cl`, for which the TGI in the assay with SW-620 colon, in the assay on EKVX NSCLC, with U251 CNS, in the assay with MDA-MB-435, in the assay with K-562 leukemia and in the assay on CAKI-1 renal was more than 100 µM each time. Besides, the TGI with HT29 colon, in the assay on SF-268 CNS, in the assay on NCI/ADR-RES ovarian, in the assay on MOLT-4 leukemia, with RPMI-8226 leukemia and with HCC-2998 colon was more than 100 µM each time. Also, the TGI in the assay on TK-10 renal is more than 100 µM; with COLO 205 colon it was 70 µM.
As for `COc1ccc(/C=c2/sc3n(c2=O)C(c2ccccc2)C2(O)CCCCC2N=3)cc1` (stereo unspecified), the TGI with SW-620 colon, with HL-60(TB) leukemia, in the assay on U251 CNS, in the assay on MDA-MB-435, in the assay on SR leukemia and in the assay with K-562 leukemia was more than 12.5 µM each time. Moreover, the TGI in the assay with CAKI-1 renal, in the assay with HT29 colon, with SF-268 CNS, in the assay on MOLT-4 leukemia, in the assay with LOX IMVI melanoma and in the assay with RPMI-8226 leukemia was more than 12.5 µM in each case. The TGI with HCC-2998 colon, in the assay on TK-10 renal and in the assay on OVCAR-8 ovarian was more than 12.5 µM each time.
For the molecule `Cc1c2n(c(=O)[nH]c1=O)C1OC(CO)C(O2)C1N=[N+]=[N-]` (stereo unspecified), the TGI in the assay on SW-620 colon, in the assay with EKVX NSCLC, with HL-60(TB) leukemia, in the assay on U251 CNS, in the assay with SR leukemia and in the assay on K-562 leukemia was more than 100 µM in each case. Moreover, the TGI in the assay with CAKI-1 renal, in the assay on HT29 colon, in the assay with SF-268 CNS, with MOLT-4 leukemia, with LOX IMVI melanoma and in the assay on RPMI-8226 leukemia was more than 100 µM each time. The TGI in the assay on SF-539 CNS, in the assay on TK-10 renal, with COLO 205 colon and with OVCAR-8 ovarian was more than 100 µM throughout.
Turning to `C[n+]1c2ccccc2c(NCC(=O)O)c2ccccc21`, the TGI in the assay on SW-620 colon, with EKVX NSCLC, with HL-60(TB) leukemia, in the assay with U251 CNS, with SR leukemia and with K-562 leukemia was more than 100 µM in each case. Besides, the TGI in the assay with CAKI-1 renal, with HT29 colon, in the assay with SF-268 CNS, in the assay with MOLT-4 leukemia, in the assay on RPMI-8226 leukemia and in the assay on HCC-2998 colon was more than 100 µM in each case. In addition, the TGI with SF-539 CNS, in the assay on TK-10 renal, with COLO 205 colon and in the assay with OVCAR-8 ovarian was more than 100 µM throughout.
For the molecule `Cc1ccc2c(c1)[nH]c(=S)n2C=C(C(N)=O)C(N)=O`, the TGI in the assay on SW-620 colon, in the assay with EKVX NSCLC, with HL-60(TB) leukemia, in the assay on U251 CNS, with MDA-MB-435 and with CAKI-1 renal was more than 100 µM throughout. For the same molecule, the TGI with HT29 colon, in the assay on SF-268 CNS, in the assay on NCI/ADR-RES ovarian, in the assay with LOX IMVI melanoma, in the assay with HCC-2998 colon and in the assay with SF-539 CNS was more than 100 µM each time. The TGI with TK-10 renal, with COLO 205 colon and in the assay with OVCAR-8 ovarian was more than 100 µM throughout.
Take `S=C1NCCN1`: the TGI in the assay on SW-620 colon, with EKVX NSCLC, in the assay with HL-60(TB) leukemia, in the assay on U251 CNS, in the assay with SR leukemia and in the assay on K-562 leukemia was more than 100 µM in each case. For the same molecule, the TGI in the assay with CAKI-1 renal, in the assay with HT29 colon, in the assay on SF-268 CNS, in the assay with MOLT-4 leukemia, with LOX IMVI melanoma and with RPMI-8226 leukemia was more than 100 µM in each case. The TGI in the assay with SF-539 CNS, in the assay on TK-10 renal, with COLO 205 colon and in the assay with OVCAR-8 ovarian was more than 100 µM throughout.
For the molecule `COc1cc2c(c(OC)c1O)-c1ccc(SC)c(=O)cc1C(NC(C)=O)CC2` (stereo unspecified), the TGI is more than 100 µM with SW-620 colon; more than 100 µM in the assay with EKVX NSCLC; more than 5.55 µM in the assay with U251 CNS; more than 100 µM with SR leukemia; more than 100 µM with K-562 leukemia; more than 100 µM in the assay with CAKI-1 renal. For the same molecule, the TGI in the assay with HT29 colon, in the assay with SF-268 CNS, in the assay with MOLT-4 leukemia, with LOX IMVI melanoma, in the assay with RPMI-8226 leukemia and in the assay with HCC-2998 colon was more than 100 µM each time. In addition, the TGI in the assay on TK-10 renal is more than 100 µM; with COLO 205 colon, 0.0209 µM; with OVCAR-8 ovarian, more than 100 µM.

Values taken from PubChem BioAssay (NCI).
